# Experimental data published in PMC8085340, “Inhibiting Pyridoxal Kinase of Entamoeba histolytica Is Lethal for This Pathogen” (Frontiers in Cellular and Infection Microbiology, 2021).
# pIC50: −log10 of the molar value.
# Target: T1, EhPLK (pyridoxal kinase) (Entamoeba histolytica, UniProt C4LVZ4)
# T1 construct: gene EHI_126090; recombinant histidine-tagged EhPLK
# T1 sequence (C4LVZ4 1-279): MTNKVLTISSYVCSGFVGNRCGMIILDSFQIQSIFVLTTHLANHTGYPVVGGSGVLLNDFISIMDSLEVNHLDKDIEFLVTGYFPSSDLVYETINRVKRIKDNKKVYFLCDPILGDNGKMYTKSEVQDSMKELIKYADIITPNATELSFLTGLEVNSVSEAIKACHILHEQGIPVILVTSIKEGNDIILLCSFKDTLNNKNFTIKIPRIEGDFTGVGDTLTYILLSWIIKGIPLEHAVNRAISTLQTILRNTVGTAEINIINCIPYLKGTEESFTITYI
# Experiment: spectrophotometric PLP formation assay at […] nm with purified enzyme; partial inhibition (maximum […])
# Type: biochemical
row,Compound,pIC50
1,"O=S1(=O)CCCN1c1ccc(Nc2ncnc3ccsc23)cc1 [compound 1, N-[4-(1,1-dioxo-1,2-thiazolidin-2-yl)phenyl]thieno[3,2-d]pyrimidin-4-amine]",~3.60
2,"O=S1(=O)CCCN1c1ccc(Nc2ncnc3sccc23)cc1 [compound 2, N-[4-(1,1-dioxo-1,2-thiazolidin-2-yl)phenyl]thieno[2,3-d]pyrimidin-4-amine]",~4.00
